# Laboratory results as given in US5525627A, “Esters of acyl carnitines with long-chain aliphatic alcohols and pharmaceutical compositions containing same having antimycotic activity” (Sigma-Tau Industrie Farmaceutiche Riunite S.p.A., priority 1992, dated 1996).
# Columns and labels:
# [1] = tested on: Candida pseudotropicalis (EC 1); assay: MIC for yeast and yeast-like strains; type: cell-based; details: Kluyveromyces marxianus; 48 hours, 35° C.; read-out: Minimal Inhibitory Concentration (MIC)
# Procedure: (§1) The following strains were used (the number of strains is in brackets): Candida (13); Criptococcus (2); Saccharormyces (1); Torulopsis (1).
# (§2) Yeast Nitrogen Base supplemented with 0.15% asparagine and 1.0% glucose (as carbon source) was the medium utilized in the assays.
# (§3) This medium was buffered with 0.165 M 2-(N-morpholino) propane sulfonic acid (MOPS), a non-chelating buffer.
# (§4) Antimicrob. Agents Cheroother. Aug. 34.8:1542-1545).
# (§5) The inoculum was prepared from an overnight broth culture (a 48-hour culture only for Cryptococcus) in Sabouraud broth and appropriately diluted to yield a final suspension containing approximately 5.0×10^6 Colony Forming Units per ml (CFU/ml), when compared to the Mc Farland's standard control (BRAY W. E., Clinical Laboratory Methods, 5th Ed. C. V. MOSBY, St. Louis, Mo, 1957).
# (§6) After further diluting (1:50), a […] volume of such fungal suspensions and an equal volume of the substance solutions were distributed into each well of a microtiter plate (96 wells, round bottom). Such a procedure eventually allowed for an "in vitro" antimycotic activity assay utilizing final fungal inocula of approximately 5.0×10^4 CFU/ml.
# Candida albicans (ISS 1) = assay: MIC for yeast and yeast-like strains; type: cell-based; details: 48 hours, 35° C., read-out: Minimal Inhibitory Concentration (MIC)
# Procedure: as §1, §2, §3, §4, §5, §6
# [2] = tested on: Candida albicans (ATCC 2091); assay: MIC for yeast and yeast-like strains; type: cell-based; details: ATCC2091, 48 hours, 35° C., read-out: Minimal Inhibitory Concentration (MIC)
# Procedure: as §1, §2, §3, §4, §5, §6
# [3] = tested on: Candida guilliermondii (ISS 1); assay: MIC for yeast and yeast-like strains; type: cell-based; details: Meyerozyma guilliermondii; 48 hours, 35° C.; read-out: Minimal Inhibitory Concentration (MIC)
# Procedure: as §1, §2, §3, §4, §5, §6
# [4] = tested on: Candida tropicalis (ISS 1); assay: MIC for yeast and yeast-like strains; type: cell-based; details: 48 hours, 35° C., read-out: Minimal Inhibitory Concentration (MIC)
# Procedure: as §1, §2, §3, §4, §5, §6
# [5] = tested on: Candida parapsilosis (ISS 1); assay: MIC for yeast and yeast-like strains; type: cell-based; details: Lodderomyces parapsilosis; 48 hours, 35° C.; read-out: Minimal Inhibitory Concentration (MIC)
# Procedure: as §1, §2, §3, §4, §5, §6
# Candida glabrata (ISS 1) = assay: MIC for yeast and yeast-like strains; type: cell-based; details: Nakaseomyces glabratus; 48 hours, 35° C.; read-out: Minimal Inhibitory Concentration (MIC)
# Procedure: as §1, §2, §3, §4, §5, §6
# [6] = tested on: Cryptococcus neoformans (ISS 1); assay: MIC for yeast and yeast-like strains; type: cell-based; details: 48 hours, 35° C., read-out: Minimal Inhibitory Concentration (MIC)
# Procedure: as §1, §2, §3, §4, §5, §6
# yeast-like fungi = assay: MIC / MFC for yeast-like fungi, all strains; type: cell-based, Candida, Cryptococcus, Saccharomyces, Torulopsis; details: versus susceptible strains; read-out: Mean MIC values
# Procedure: as §1, §2
# (§7) This medium was buffered with 0.165 M 2-(N-morpholino) propane sulfonic acid (MOPS), a non-chelating buffer. […]
# as §5, §6
# (§8) The minimal fungicidal concentration was evaluated by spot-transferring onto Petri dishes, containing Sabouraud agar, 0.01-ml volumes of all the samples showing no visible fungal growth.
# Candida albicans (562) = assay: MIC for yeast and yeast-like strains; type: cell-based; details: 48 hours, 35° C., read-out: Minimal Inhibitory Concentration (MIC)
# Procedure: as §1, §2, §7, §5, §6
# Candida albicans (A 54) = assay: MIC for yeast and yeast-like strains; type: cell-based; details: 48 hours, 35° C., read-out: Minimal Inhibitory Concentration (MIC)
# Procedure: as §1, §2, §7, §5, §6
# [7] = tested on: Saccharomyces cerevisiae (ATCC 7752); assay: MIC for yeast and yeast-like strains; type: cell-based; details: ATCC7752, 48 hours, 35° C., read-out: Minimal Inhibitory Concentration (MIC)
# Procedure: as §1, §2, §7, §5, §6
# [8] = tested on: Cryptococcus neoformans (4711); assay: MIC for yeast and yeast-like strains; type: cell-based; details: 48 hours, 35° C., read-out: Minimal Inhibitory Concentration (MIC)
# Procedure: as §1, §2, §7, §5, §6
# [9] = tested on: Torulopsis candida (D.S.); assay: MIC for yeast and yeast-like strains; type: cell-based; details: Suzukiozyma candida; 48 hours, 35° C.; read-out: Minimal Inhibitory Concentration (MIC)
# Procedure: as §1, §2, §7, §5, §6
# Candida albicans (Ca 2) = assay: MIC for yeast and yeast-like strains; type: cell-based; details: 48 hours, 35° C., read-out: Minimal Inhibitory Concentration (MIC)
# Procedure: as §1, §2, §7, §5, §6
# [10] = tested on: Candida tropicalis (5705); assay: MIC for yeast and yeast-like strains; type: cell-based; details: 48 hours, 35° C., read-out: Minimal Inhibitory Concentration (MIC)
# Procedure: as §1, §2, §7, §5, §6
# Candida krusei (ISS 1) = assay: MIC for yeast and yeast-like strains; type: cell-based; details: Pichia kudriavzevii; 48 hours, 35° C.; read-out: Minimal Inhibitory Concentration (MIC)
# Procedure: as §1, §2, §7, §5, §6
# Candida albicans (PG) = assay: MIC and MFC for yeast and yeast-like strains; type: cell-based; details: 48 hours, 35° C., read-out: Minimal Inhibitory Concentration (MIC)
# Procedure: as §1, §2, §3, §4, §5, §6, §8
# Fusarium sp. (ISS 1) = assay: MIC for filamentous fungi; type: cell-based; details: read-out: Minimal Inhibitory Concentration (MIC)
# From the text: (§9) The following strains were used (the number of strains is in brackets): Aspergillus (5); Fusarium (1); Mucor (1); Penicillium (1).
# (§10) The tested substances were: ST 712, ST 722, ST 982, ST 983, ST 1000, ST 1001, ST 1032, ST 1033, ST 1034, ST 1036, ST 1037, ST 1038, ST 1050, ST 1051, ST 1052, ST 1053. The assay medium was the same as the one used in the previous study. The conidia from 72-hour cultures in Sabouraud agar, collected by washing with Sabouraud medium and Tween 80 (one drop of Tween per 10 ml of medium), were utilized as inoculum (5.0×10^4 CFU/ml).
# (§11) The assay was performed using the same procedure as described for yeast-like fungi.
# (§12) Also the evaluation of MIC and MFC was as reported previously.
# [11] = tested on: Aspergillus fumigatus (2/A); assay: MIC for filamentous fungi; type: cell-based; details: read-out: Minimal Inhibitory Concentration (MIC)
# From the text: as §9, §10, §11, §12
# [12] = tested on: Aspergillus fumigatus (ATCC 28212); assay: MIC for filamentous fungi; type: cell-based; details: ATCC28212, read-out: Minimal Inhibitory Concentration (MIC)
# From the text: as §9, §10, §11, §12
# Penicillium sp. (1302) = assay: MIC for filamentous fungi; type: cell-based; details: read-out: Minimal Inhibitory Concentration (MIC)
# From the text: as §9, §10, §11, §12
# [13] = tested on: Aspergillus niger (ATCC 16404); assay: MIC for filamentous fungi; type: cell-based; details: ATCC16404, read-out: Minimal Inhibitory Concentration (MIC)
# From the text: as §9, §10, §11, §12
# Mucor mucedo (ATCC 7941) = assay: MIC for filamentous fungi; type: cell-based; details: ATCC7941, read-out: Minimal Inhibitory Concentration (MIC)
# From the text: as §9, §10, §11, §12
# [14] = tested on: Aspergillus fumigatus (1/A); assay: MIC for filamentous fungi; type: cell-based; details: read-out: Minimal Inhibitory Concentration (MIC)
# From the text: as §9, §10, §11, §12
# [15] = tested on: Aspergillus fumigatus (C/1); assay: MIC for filamentous fungi; type: cell-based; details: read-out: Minimal Inhibitory Concentration (MIC)
# From the text: as §9, §10, §11, §12
# filamentous fungi = assay: MIC / MFC for filamentous fungi, all strains; type: cell-based, Aspergillus, Fusarium, Mucor, Penicillium; details: versus susceptible strains; read-out: Mean MIC values
# From the text: as §9, §10, §11, §12
# [16] = tested on: Microsporum canis (IHEM 3522); assay: MIC for dermatophytic fungi; type: cell-based; details: 35° C., 96 hours, read-out: Minimal Inhibitory Concentration (MIC)
# Procedure: (§13) The following strains were used: Trichophyton menthagrophytes ATCC 9533, Trichophyton rubrum IHEM 4274, Microsporum canis IHEM 3522, Epydermophyton floccosum IHEM 3495. The tested substances were: ST 722, ST 1033, ST 1037, ST 1050, ST 1051, ST 1052,. ST 1053.
# (§14) The assay was performed following the same procedure described for the yeasts, by using 7-day fungi cultures grown at 30° C. in Potato Dextrose agar, and harvested with Sabouraud broth and Tween 80 (0.5%).
# (§15) After washing with Yeast Nitrogen Base, supplemented with asparagine and glucose (as carbon source), the fungal suspension was fragmented using a tissue grinder until the largest clumps or aggregates were undetectable within the grinder. This fungal suspension was then appropriately diluted in YNB to yield a concentration of 2.0×10^5 infective particles/ml (small mycelium fragments, micro-and macroaleuriospores).
# (§16) Volumes of 100 μl both of the fungal suspensions and substance solutions, two-fold serially diluted in assay medium, were distributed into each well of a microtiter plate (96 wells, round bottom), which was incubated at 35° C. for 96 hours.
# [17] = tested on: Epidermophyton floccosum (IHEM 3495); assay: MIC for dermatophytic fungi; type: cell-based; details: 35° C., 96 hours, read-out: Minimal Inhibitory Concentration (MIC)
# Procedure: as §13, §14, §15, §16
# [18] = tested on: Trichophyton rubrum (IHEM 4274); assay: MIC for dermatophytic fungi; type: cell-based; details: 35° C., 96 hours, read-out: Minimal Inhibitory Concentration (MIC)
# Procedure: as §13, §14, §15, §16
# [19] = tested on: Trichophyton menthagrophites (ATCC 9533); assay: MIC for dermatophytic fungi; type: cell-based; details: ATCC9533, 35° C., 96 hours, read-out: Minimal Inhibitory Concentration (MIC)
# Procedure: as §13, §14, §15, §16
# dermatophytic fungi = assay: MIC / MFC for dermatophytic fungi, all strains; type: cell-based, Trichophyton, Microsporum, Epidermophyton; details: versus susceptible strains
# Procedure: as §13, §14, §15, §16
SMILES,MIC [1] [µg/mL],MIC (Candida albicans (ISS 1)) [µg/mL],MIC [2] [µg/mL],MIC [3] [µg/mL],MIC [4] [µg/mL],MIC [5] [µg/mL],MIC (Candida glabrata (ISS 1)) [µg/mL],MIC [6] [µg/mL],MIC (yeast-like fungi) [µg/mL],MIC (Candida albicans (562)) [µg/mL],MIC (Candida albicans (A 54)) [µg/mL],MIC [7] [µg/mL],MIC [8] [µg/mL],MIC [9] [µg/mL],MIC (Candida albicans (Ca 2)) [µg/mL],MIC [10] [µg/mL],MIC (Candida krusei (ISS 1)) [µg/mL],MIC (Candida albicans (PG)) [µg/mL],MIC (Fusarium sp. (ISS 1)) [µg/mL],MIC [11] [µg/mL],further results
CCCCCCCCCCCOC(=O)C[C@H](C[N+](C)(C)C)OC(=O)CCCCCC [ST 1036],6.25,1.56,1.56,6.25,3.12,6.25,3.12,3.12,2.84,1.56,1.56,3.12,1.56,3.12,1.56,3.12,1.56,3.12,3.12,6.25,MIC [12]: 3.12 µg/mL; MIC (Penicillium sp. (1302)): 3.12 µg/mL; MIC [13]: 3.12 µg/mL; MIC (Mucor mucedo (ATCC 7941)): 6.25 µg/mL; MIC [14]: 6.25 µg/mL; MIC [15]: 3.12 µg/mL; MIC (filamentous fungi): 4.29 µg/mL
CCCCCCCCCCCCOC(=O)C[C@H](C[N+](C)(C)C)OC(=O)CC(C)C [ST 1037],6.25,3.12,1.56,6.25,3.12,3.12,3.12,1.56,2.8,1.56,1.56,3.12,0.78,3.12,1.56,3.12,1.56,3.12,3.12,6.25,MIC [16]: 12.5 µg/mL; MIC [17]: 25 µg/mL; MIC [18]: 6.25 µg/mL; MIC [19]: 12.5 µg/mL; MIC [12]: 6.25 µg/mL; MIC (Penicillium sp. (1302)): 6.25 µg/mL; MIC [13]: 6.25 µg/mL; MIC (Mucor mucedo (ATCC 7941)): 12.5 µg/mL; MIC [14]: 6.25 µg/mL; MIC [15]: 6.25 µg/mL; MIC (dermatophytic fungi): 14.1 µg/mL; MIC (filamentous fungi): 6.64 µg/mL
CCCCCCCCCCCCOC(=O)C[C@H](C[N+](C)(C)C)OC(=O)C(C)C [ST 1038],6.25,6.25,3.12,6.25,3.12,6.25,6.25,3.12,4.4,3.12,3.12,6.25,1.56,6.25,1.56,3.12,3.12,6.25,6.25,12.5,MIC [12]: 12.5 µg/mL; MIC (Penicillium sp. (1302)): 12.5 µg/mL; MIC [13]: 12.5 µg/mL; MIC (Mucor mucedo (ATCC 7941)): 25 µg/mL; MIC [14]: 12.5 µg/mL; MIC [15]: 6.25 µg/mL; MIC (filamentous fungi): 12.5 µg/mL
